Results on six molecules are retold here after ChEMBL document CHEMBL2034827, “Identification of novel antimalarial chemotypes via chemoinformatic compound selection methods for a high-throughput screening program against the novel malarial target, PfNDH2: increasing hit rate via virtual screening methods” (J Med Chem, 2012).

Structures are written as SMILES.

Assay [1] in a line: Inhibition of recombinant Plasmodium falciparum NDH2 expressed in Escherichia coli ANN0222 by spectrophotometry.
The next assay concerns Plasmodium falciparum. As to the kind of experiment: Antimalarial activity against blood stage form of Plasmodium falciparum 3D7 infected in human erythrocytes after 48 hrs by SYBR Green-based fluorometry. It is filed as functional, organism-based. The following applies: 3D7, 48 h.

With `CC(C)(Cc1cc(=O)c2ccccc2[nH]1)C1CCCCC1`, the IC50 in assay [1] amounted to 78 nM; in the assay with Plasmodium falciparum it was 3800 nM. The like results for `CCn1cc(C(=O)NCc2ccc(Cl)cc2)c(=O)c2cc(F)c(N3CCN(C(=O)c4ccco4)CC3)cc21` were, in that order, 295 nM and 5000 nM. Regarding `O=C1NC(=O)N(C2CCCCC2)C(=O)/C1=C/c1c(-c2ccccc2)[nH]c2ccccc12`, the IC50 in assay [1] worked out at 512 nM; in the assay on Plasmodium falciparum, 5560 nM.

For the molecule `CSc1nc2cc(Oc3ccc(Cl)c4ccccc34)c(Cl)cc2[nH]1`, the IC50 in assay [1] was 1040 nM; in the assay on Plasmodium falciparum, 2080 nM. Regarding `O=C(Nc1ccc(F)c(F)c1)C1CCC(Cn2cnc3ccccc3c2=O)CC1` (stereo unspecified), the IC50 in assay [1] amounted to 1360 nM; in the assay with Plasmodium falciparum, 2080 nM. For the molecule `CCCCCCCCCCCCc1cc(=O)c2ccccc2n1O`, the IC50 in assay [1] was found to be 70 nM.
